Reference: ChEMBL document CHEMBL5331044, “Recent advances in the development of EGFR degraders: PROTACs and LYTACs” (Eur J Med Chem, 2022)

Columns and labels:
[1] = target: Epidermal growth factor receptor (Homo sapiens, UniProt P00533, EX19DEL); assay: Inhibition of EGFR del19 mutant in human HCC827 cells; format: cell-based
[2] = target: T1, Epidermal growth factor receptor (Homo sapiens, UniProt P00533); assay: Inhibition of EGFR in human NCI-H1975 cells; format: cell-based
[3] = target: T1, Epidermal growth factor receptor; assay: Inhibition of wild type EGFR in human A549 cells; format: cell-based
[4] = target: T1, Epidermal growth factor receptor; assay: Inhibition of wild type EGFR in human A-431 cells; format: cell-based
NCI-H1975 [5] = assay: Antiproliferative activity against human NCI-H1975 cells expressing EGFR T790M mutant assessed as inhibition of EGFR phosphorylation; format: functional, cell-based
NCI-H1975 [6] = assay: Antiproliferative activity against human NCI-H1975 cells expressing EGFR L858R/T790M mutant assessed as inhibition of cell growth; format: functional, cell-based
A-431 = assay: Antiproliferative activity against human A-431 cells expressing wild type EGFR assessed as inhibition of cell growth; format: functional, cell-based
[7] = target: von Hippel-Lindau disease tumor suppressor/Receptor tyrosine-protein kinase erbB-2 (Homo sapiens, UniProt P04626+P40337); assay: PROTAC activity at VHL/HER2 in human SK-BR-3 cells assessed as protein degradation incubated for 24 hrs by immunoblot analysis; format: cell-based
[8] = target: von Hippel-Lindau disease tumor suppressor/Epidermal growth factor receptor (Homo sapiens, UniProt P00533+P40337); assay: PROTAC activity at VHL/EGFR ins20 mutant in human HeLa cells assessed as protein degradation incubated for 24 hrs by immunoblot analysis; format: cell-based
BaF3 = assay: Antiproliferative activity against mouse BaF3 cells transfected with EGFR […]/T790M mutant assessed as inhibition of cell growth; format: functional, cell-based
[9] = test system: Epidermal growth factor receptor (Homo sapiens), P00533 [UNDEFINED MUTATION]; assay: Inhibition of EGFR del19 mutant (unknown origin) assessed as fold change
Sequence of Epidermal growth factor receptor (Homo sapiens), P00533 [UNDEFINED MUTATION] (P00533 whole entry, looked up, stated change not applied): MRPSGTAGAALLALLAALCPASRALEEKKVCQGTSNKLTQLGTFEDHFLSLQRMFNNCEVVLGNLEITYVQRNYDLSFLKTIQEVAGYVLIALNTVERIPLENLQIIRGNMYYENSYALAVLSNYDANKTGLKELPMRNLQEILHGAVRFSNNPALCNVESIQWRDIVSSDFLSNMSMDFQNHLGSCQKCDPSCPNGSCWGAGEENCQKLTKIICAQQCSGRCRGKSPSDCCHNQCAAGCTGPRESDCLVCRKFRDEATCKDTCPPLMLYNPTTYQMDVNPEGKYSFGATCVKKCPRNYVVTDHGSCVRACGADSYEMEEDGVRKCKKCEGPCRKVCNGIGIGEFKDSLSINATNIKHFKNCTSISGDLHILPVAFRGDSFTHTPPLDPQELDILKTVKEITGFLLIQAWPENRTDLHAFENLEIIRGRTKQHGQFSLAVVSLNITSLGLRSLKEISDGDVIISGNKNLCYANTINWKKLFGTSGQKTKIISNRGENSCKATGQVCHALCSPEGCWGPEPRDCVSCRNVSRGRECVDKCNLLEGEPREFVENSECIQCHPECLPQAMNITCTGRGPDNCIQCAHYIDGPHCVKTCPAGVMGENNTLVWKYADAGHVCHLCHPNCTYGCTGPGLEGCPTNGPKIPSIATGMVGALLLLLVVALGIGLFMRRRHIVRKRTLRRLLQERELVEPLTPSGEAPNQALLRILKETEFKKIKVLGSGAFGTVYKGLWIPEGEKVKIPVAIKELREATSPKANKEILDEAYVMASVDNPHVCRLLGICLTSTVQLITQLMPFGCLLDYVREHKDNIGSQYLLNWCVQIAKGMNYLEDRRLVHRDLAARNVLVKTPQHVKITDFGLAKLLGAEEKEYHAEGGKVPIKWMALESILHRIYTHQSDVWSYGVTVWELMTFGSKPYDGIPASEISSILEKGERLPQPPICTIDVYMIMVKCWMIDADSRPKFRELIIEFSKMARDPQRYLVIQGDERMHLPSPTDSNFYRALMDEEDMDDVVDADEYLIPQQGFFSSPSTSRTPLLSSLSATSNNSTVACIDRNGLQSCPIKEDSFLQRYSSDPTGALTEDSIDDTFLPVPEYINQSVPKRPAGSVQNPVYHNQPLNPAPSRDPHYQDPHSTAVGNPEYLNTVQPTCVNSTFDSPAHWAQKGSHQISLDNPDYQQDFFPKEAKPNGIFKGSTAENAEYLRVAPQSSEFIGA

T1 sequence (P00533 whole entry): as the sequence (P00533 whole entry, looked up, stated change not applied) above
Sequence of von Hippel-Lindau disease tumor suppressor/Receptor tyrosine-protein kinase erbB-2 (P04626 whole entry): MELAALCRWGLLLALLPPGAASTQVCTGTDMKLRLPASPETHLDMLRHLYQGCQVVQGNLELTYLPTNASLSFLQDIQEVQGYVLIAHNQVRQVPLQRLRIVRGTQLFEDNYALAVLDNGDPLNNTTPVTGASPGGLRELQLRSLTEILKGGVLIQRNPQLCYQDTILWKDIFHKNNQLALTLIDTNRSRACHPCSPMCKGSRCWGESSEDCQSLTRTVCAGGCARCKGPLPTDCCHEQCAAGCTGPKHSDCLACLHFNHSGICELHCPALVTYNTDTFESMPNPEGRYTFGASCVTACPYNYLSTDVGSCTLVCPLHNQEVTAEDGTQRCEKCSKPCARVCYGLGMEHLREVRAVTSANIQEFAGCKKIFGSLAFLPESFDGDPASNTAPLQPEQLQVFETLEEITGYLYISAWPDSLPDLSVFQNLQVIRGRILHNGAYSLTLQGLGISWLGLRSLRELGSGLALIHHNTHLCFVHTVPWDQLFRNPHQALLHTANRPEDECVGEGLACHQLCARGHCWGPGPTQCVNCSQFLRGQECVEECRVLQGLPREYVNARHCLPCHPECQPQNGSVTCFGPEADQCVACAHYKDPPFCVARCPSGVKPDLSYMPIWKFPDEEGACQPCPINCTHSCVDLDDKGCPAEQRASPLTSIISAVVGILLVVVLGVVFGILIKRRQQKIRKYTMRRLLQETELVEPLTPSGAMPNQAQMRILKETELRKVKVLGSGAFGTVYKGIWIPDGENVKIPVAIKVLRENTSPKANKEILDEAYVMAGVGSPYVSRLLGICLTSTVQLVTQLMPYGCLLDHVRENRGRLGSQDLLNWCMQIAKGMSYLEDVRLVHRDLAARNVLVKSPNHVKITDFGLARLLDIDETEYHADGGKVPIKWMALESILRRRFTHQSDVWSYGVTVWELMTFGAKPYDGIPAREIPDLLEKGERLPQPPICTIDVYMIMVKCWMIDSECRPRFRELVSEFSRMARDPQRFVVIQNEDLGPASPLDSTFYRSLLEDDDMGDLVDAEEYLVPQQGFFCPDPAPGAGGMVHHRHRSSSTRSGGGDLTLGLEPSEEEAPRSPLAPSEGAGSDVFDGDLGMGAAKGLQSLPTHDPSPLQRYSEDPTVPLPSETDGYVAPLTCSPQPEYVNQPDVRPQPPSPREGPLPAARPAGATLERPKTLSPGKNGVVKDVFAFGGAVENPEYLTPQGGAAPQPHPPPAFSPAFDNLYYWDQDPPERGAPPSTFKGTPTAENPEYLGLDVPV
Sequence of von Hippel-Lindau disease tumor suppressor/Receptor tyrosine-protein kinase erbB-2 (P40337 whole entry): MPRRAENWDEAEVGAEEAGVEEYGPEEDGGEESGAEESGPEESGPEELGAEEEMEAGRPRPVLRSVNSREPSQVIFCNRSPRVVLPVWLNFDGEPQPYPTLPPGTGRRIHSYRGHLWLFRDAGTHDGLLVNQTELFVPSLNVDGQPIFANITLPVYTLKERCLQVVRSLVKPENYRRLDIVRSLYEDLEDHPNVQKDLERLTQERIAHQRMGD
Sequence of Epidermal growth factor receptor (Homo sapiens, UniProt P00533, EX19DEL) (P00533 whole entry, looked up, stated change not applied): as the sequence (P00533 whole entry, looked up, stated change not applied) above

Q: How did the IC50 [1] turn out when `Cc1ncsc1-c1ccc(CNC(=O)[C@@H]2C[C@@H](O)CN2C(=O)[C@@H](NC(=O)CCCCCCCCCCn2cc(COc3cc4ncnc(Nc5ccc(F)c(Cl)c5)c4cc3NC(=O)/C=C/CN3CCCCC3)nn2)C(C)(C)C)cc1` was run?
A: The IC50 was 6 nM.

Q: And the IC50 [2]?
A: The IC50 was greater than 20000 nM.

Q: And the IC50 [3]?
A: Its IC50 is greater than 20000 nM.

Q: What about the IC50 [4] of the same molecule?
A: Its IC50 is greater than 20000 nM.

Q: `CN(C)C/C=C/C(=O)Nc1cc2c(Nc3ccc(F)c(Cl)c3)ncnc2cc1O[C@H]1CCOC1` [AFATINIB] was tested. Which IC50 (NCI-H1975 [5]) did it give?
A: The IC50 was 93 nM.

Q: With `O=C(Nc1nccs1)C(c1cc(F)ccc1O)N1Cc2ccccc2C1=O` (stereo unspecified) as the molecule, how does the IC50 (NCI-H1975 [6]) read?
A: Its IC50 is 2 nM.

Q: What about the IC50 (A-431) of the same molecule?
A: Its IC50 is 1900 nM.

Q: Which DC50 [7] does the source give for `Cc1ncsc1-c1ccc(CNC(=O)[C@@H]2C[C@@H](O)CN2C(=O)[C@@H](NC(=O)COCCOCCOc2ccc(-c3ccc4ncnc(Nc5ccc(OCc6cccc(F)c6)c(Cl)c5)c4c3)cc2)C(C)(C)C)cc1` here?
A: The DC50 was 102 nM.

Q: What about the DC50 [8] of the same molecule?
A: Its DC50 is 736 nM.

Q: For `O=C1CCC(N2C(=O)c3cccc(NCCOCCOCCOCCN4CCN(c5ccc(-c6ccc7c(c6)C(=O)N(C(C(=O)Nc6nccs6)c6ccccc6)C7)cn5)CC4)c3C2=O)C(=O)N1` (stereo unspecified), which IC50 (BaF3) is on record?
A: Its IC50 is 96 nM.

Q: Which fold change (FC) [9] does the source give for `COc1cc2ncnc(N(Cc3ccc([N+](=O)[O-])cc3)c3ccc(F)c(Cl)c3)c2cc1OCCOCCOCCOCCC(=O)Nc1cccc2c1CN(C1CCC(=O)NC1=O)C2=O` (stereo unspecified) here?
A: Its fold change (FC) is 1000.
